In the supplement of paper PMC10307832:

How the values were obtained:
Assay in all cases: relative viability (nuclei count vs DMSO), 5 days (fraction); higher = more cells survive
BMX-IN-1 + Dasatinib = compound: C=CC(=O)Nc1cc(-n2c(=O)ccc3cnc4ccc(-c5ccc(NS(C)(=O)=O)cc5)cc4c32)ccc1C [BMX-IN-1] + Cc1nc(Nc2ncc(C(=O)Nc3c(C)cccc3Cl)s2)cc(N2CCN(CCO)CC2)n1 [Dasatinib] (partner 0.075 µM)
How it was run: (§1)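 Relative viability was taken as the ratio of nuclei in treated wells to nuclei in vehicle wells. Lung cancer cell lines in 1536-well plates received compounds by pin tool one day after seeding, either one drug alone or a fixed anchor-drug dose plus five library-drug doses (not always all listed) in √10 steps. Nuclei were counted on 4× images after 5 days of treatment, and values are medians of duplicate plates.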

BMX-IN-1 + Alpelisib = compound: C=CC(=O)Nc1cc(-n2c(=O)ccc3cnc4ccc(-c5ccc(NS(C)(=O)=O)cc5)cc4c32)ccc1C [BMX-IN-1] + Cc1nc(NC(=O)N2CCC[C@H]2C(N)=O)sc1-c1ccnc(C(C)(C)C(F)(F)F)c1 [Alpelisib] (partner 2 µM)
How it was run: as §1

Ibrutinib + Linsitinib = compound: C=CC(=O)N1CCC[C@@H](n2nc(-c3ccc(Oc4ccccc4)cc3)c3c(N)ncnc32)C1 [Ibrutinib] + C[C@]1(O)C[C@@H](c2nc(-c3ccc4ccc(-c5ccccc5)nc4c3)c3c(N)nccn32)C1 [Linsitinib] (partner 1 µM)
How it was run: as §1

Ibrutinib + Olaparib = compound: C=CC(=O)N1CCC[C@@H](n2nc(-c3ccc(Oc4ccccc4)cc3)c3c(N)ncnc32)C1 [Ibrutinib] + O=C(c1cc(Cc2n[nH]c(=O)c3ccccc23)ccc1F)N1CCN(C(=O)C2CC2)CC1 [Olaparib] (partner 8 µM)
How it was run: as §1

Cell Line	relative viability (BMX-IN-1 + Dasatinib; first compound 0.02 µM)	relative viability (BMX-IN-1 + Dasatinib; first compound 0.2 µM)	relative viability (BMX-IN-1 + Dasatinib; first compound 0.6325 µM)	relative viability (BMX-IN-1 + Dasatinib; first compound 2 µM)	relative viability (BMX-IN-1 + Alpelisib; first compound 0.02 µM)	relative viability (BMX-IN-1 + Alpelisib; first compound 0.2 µM)	relative viability (BMX-IN-1 + Alpelisib; first compound 0.6325 µM)	relative viability (BMX-IN-1 + Alpelisib; first compound 2 µM)	relative viability (Ibrutinib + Linsitinib; first compound 0.005 µM)	relative viability (Ibrutinib + Linsitinib; first compound 0.01581 µM)	relative viability (Ibrutinib + Linsitinib; first compound 0.05 µM)	relative viability (Ibrutinib + Linsitinib; first compound 0.1581 µM)	relative viability (Ibrutinib + Linsitinib; first compound 0.5 µM)	relative viability (Ibrutinib + Olaparib; first compound 0.005 µM)	relative viability (Ibrutinib + Olaparib; first compound 0.01581 µM)	relative viability (Ibrutinib + Olaparib; first compound 0.05 µM)	relative viability (Ibrutinib + Olaparib; first compound 0.1581 µM)	relative viability (Ibrutinib + Olaparib; first compound 0.5 µM)
NCI-H1623	0.529	0.526	0.569	0.504	–	–	–	–	–	–	–	–	–	–	–	–	–	–
HOP-62	0.587	0.786	0.768	0.729	0.813	0.918	0.926	0.914	0.761	0.771	0.979	1.17	1.07	0.549	0.387	0.504	0.628	0.381
NCI-H727	0.438	0.339	0.479	0.444	0.499	0.671	0.766	0.578	0.285	0.288	0.319	0.203	0.31	0.736	0.817	0.659	0.792	0.688
ChaGo-K-1	0.63	0.598	0.633	0.561	–	–	–	–	–	–	–	–	–	0.445	0.421	0.424	0.436	0.426
BEN	0.308	0.34	0.241	0.295	1.22	1.32	0.938	1.04	0.766	0.885	0.853	0.851	0.883	0.984	1.11	1.09	1.11	1.2
NCI-H596	0.66	0.618	0.674	0.672	0.511	0.535	0.544	0.54	1.13	0.946	0.99	0.996	0.841	1.09	0.635	0.68	0.668	0.723
LU99A	0.646	0.56	0.793	0.555	0.482	0.659	0.526	0.532	0.504	0.51	0.497	0.54	0.521	0.254	0.272	0.285	0.291	0.25
NCI-H460	0.621	0.682	0.679	0.494	0.827	0.752	0.566	0.568	0.643	0.652	0.861	0.76	0.772	0.405	0.373	0.441	0.432	0.441
NCI-H1648	–	–	–	–	–	–	–	–	–	–	–	–	–	0.626	0.552	0.653	0.766	0.481
HCC-44	–	–	–	–	0.869	0.905	1.01	0.794	0.682	0.591	0.673	0.732	0.645	1.06	0.965	–	1	1.07
NCI-H647	0.197	0.24	0.277	0.174	1.25	1.32	1.36	0.974	1.05	0.995	1.15	1.14	1.1	0.638	0.387	0.62	0.57	0.637
Calu-6	–	–	–	–	0.974	1.13	1.15	0.919	0.991	–	0.928	1.04	0.888	0.673	0.582	0.576	0.599	0.589
201T	0.659	0.681	0.687	0.567	1.02	1.02	0.987	1.02	0.961	1.05	1.01	1.06	0.907	0.844	0.848	0.841	0.816	0.793
CAL-12T	0.353	0.444	0.528	0.366	1.74	1.27	1.04	1.32	0.805	0.724	0.627	0.739	0.472	0.665	0.677	0.658	0.818	0.506
HCC-78	0.379	0.421	0.37	0.462	0.355	0.319	0.391	0.175	0.555	0.489	0.432	0.485	0.33	–	0.773	0.716	0.87	0.679
LK-2	0.338	0.325	0.304	0.282	1.75	1.43	1.04	0.993	0.422	0.7	0.552	0.377	0.528	0.633	0.691	0.715	0.628	0.425
NCI-H522	0.894	1.02	0.89	0.821	–	–	–	–	–	–	–	–	–	0.587	0.605	0.653	0.644	0.573
NCI-H322M	0.261	0.251	0.262	0.256	0.882	0.825	0.757	0.772	0.782	0.813	0.784	0.82	0.516	0.766	0.768	0.775	0.725	0.659
COR-L 105	0.324	0.297	0.342	0.305	1.33	1.05	1.11	0.886	0.739	0.811	0.709	0.914	0.321	0.663	0.683	0.717	0.755	0.46
LOU-NH91	0.553	–	0.657	0.559	–	0.686	0.768	0.709	0.834	0.733	0.739	0.892	0.492	0.836	0.751	0.798	0.931	0.692
PC-3 [JPC-3]	1	1.19	1.07	0.943	1.17	1.06	1.09	1.09	0.917	0.93	0.956	0.955	0.619	1.21	0.996	0.93	1.29	0.523

Cell Line	relative viability (BMX-IN-1 + Dasatinib; first compound 0.02 µM)	relative viability (BMX-IN-1 + Dasatinib; first compound 0.2 µM)	relative viability (BMX-IN-1 + Dasatinib; first compound 0.6325 µM)	relative viability (BMX-IN-1 + Dasatinib; first compound 2 µM)	relative viability (BMX-IN-1 + Alpelisib; first compound 0.02 µM)	relative viability (BMX-IN-1 + Alpelisib; first compound 0.2 µM)	relative viability (BMX-IN-1 + Alpelisib; first compound 0.6325 µM)	relative viability (BMX-IN-1 + Alpelisib; first compound 2 µM)	relative viability (Ibrutinib + Linsitinib; first compound 0.005 µM)	relative viability (Ibrutinib + Linsitinib; first compound 0.01581 µM)	relative viability (Ibrutinib + Linsitinib; first compound 0.05 µM)	relative viability (Ibrutinib + Linsitinib; first compound 0.1581 µM)	relative viability (Ibrutinib + Linsitinib; first compound 0.5 µM)	relative viability (Ibrutinib + Olaparib; first compound 0.005 µM)	relative viability (Ibrutinib + Olaparib; first compound 0.01581 µM)	relative viability (Ibrutinib + Olaparib; first compound 0.05 µM)	relative viability (Ibrutinib + Olaparib; first compound 0.1581 µM)	relative viability (Ibrutinib + Olaparib; first compound 0.5 µM)
NCI-H2228	0.497	0.672	0.593	0.561	0.906	1.04	1.16	0.822	0.62	0.689	0.71	0.936	0.454	0.774	0.601	0.776	1.08	0.715
NCI-H1650	0.299	0.307	0.423	0.294	–	–	–	–	–	–	–	–	–	0.73	0.836	0.805	0.822	0.754
LCLC-103H	0.519	0.477	0.522	0.535	1.01	0.972	1.09	0.875	1.28	1.16	1.09	1.1	1.03	0.769	0.744	–	0.739	0.758
HCC-15	0.662	0.64	0.745	0.64	1.08	1.02	0.924	0.882	0.883	0.85	0.935	0.89	0.835	0.835	0.724	0.75	0.846	0.773
UMC-11	0.542	0.591	0.549	0.475	1.16	1.28	1.08	0.98	0.903	0.987	1.17	1.14	0.938	0.338	0.392	0.538	0.663	0.377
NCI-H2087	1.25	0.931	1.03	0.926	1.12	1.28	1.32	1.24	1.07	1.06	–	1.02	0.943	0.602	0.715	0.691	–	0.724
NCI-H3122	1.03	0.936	0.837	0.84	0.815	0.879	0.657	0.812	–	1.03	1.03	0.992	1.07	0.774	0.6	0.582	0.644	0.695
NCI-H661	0.993	0.852	1	0.946	0.675	0.889	0.758	0.692	0.477	0.48	0.543	0.546	0.355	0.716	0.706	0.719	0.773	0.579
NCI-H1703	–	–	–	–	0.359	0.254	0.269	0.252	0.178	0.676	0.632	0.467	0.627	0.317	0.289	0.449	0.4	0.327
NCI-H2342	0.31	0.326	0.307	0.327	–	–	–	–	–	–	–	–	–	0.422	0.413	0.438	0.457	0.268
NCI-H838	0.28	0.323	0.347	0.282	1.18	0.961	1.06	1.04	1.02	1	0.983	1.08	1.01	0.794	0.693	0.849	0.866	0.825
ABC-1	0.465	0.545	0.598	0.601	0.98	1.2	1.22	1.12	0.822	0.736	0.795	0.879	0.644	0.85	0.774	–	–	0.844
NCI-H441	0.741	0.79	0.709	0.707	0.658	0.917	1.04	0.641	0.64	0.615	0.585	0.518	0.495	0.794	0.728	0.652	0.768	0.567
NCI-H2126	0.624	0.645	0.616	0.601	0.763	0.748	0.827	0.77	–	0.66	0.705	0.732	0.539	0.879	0.899	0.88	0.905	0.747
SW 900	0.568	0.835	0.521	0.714	–	–	–	–	–	–	–	–	–	0.886	0.694	0.832	1.02	0.752
NCI-H1299	–	–	–	–	1.14	1.17	1.1	1.16	0.497	0.993	0.961	0.966	1.03	1	0.964	0.978	0.98	0.924
EBC-1	–	–	–	–	0.701	0.698	1.01	0.812	0.848	1	0.825	0.864	0.952	0.718	0.645	0.606	0.737	0.797
IA-LM	–	–	–	–	0.854	0.697	1.07	0.916	0.397	0.658	0.453	0.512	0.56	0.881	0.891	0.797	0.936	1.04
NCI-H1563	0.441	0.463	0.423	0.428	0.997	0.902	0.904	0.893	1.37	1.08	1.33	1.16	1.06	–	–	–	–	–
A549	–	–	–	–	0.94	0.716	0.813	0.762	–	0.58	0.519	0.505	0.377	–	0.35	0.279	0.326	0.21
NCI-H2170	0.609	0.634	0.67	0.586	0.91	0.859	0.921	0.821	–	–	–	–	–	0.568	0.502	0.433	0.607	0.156
